Earlier results as cited in patent US20260285919A1, “RECOMBINANT PEPTIDES AND COMPOSITIONS THEREOF FOR PAIN MANAGEMENT” (UNIVERSITY OF ROCHESTER, priority 2023, published 2026).

Assays:
mice = conditions: for pain responses in injected paws: injected into the paws of mice
human ASIC1b = human ASIC1b protein, as opposed to rodent ASIC1b

For mambalgin, the “analgesic effect in mice where ASIC1a is genetically deleted” value (mice; ASIC1a genetically deleted mice, ASIC1b present) is given as “still works”, the “pain responses in injected paws” value (mice) is given as “much less sensitive” and the “effect on the activity of human ASIC1b” value (human ASIC1b) is given as “increases the activity of human ASIC1b”.
In the case of “PcTx1 (EDCIPKWKGCVNRHGDCCEGLECWKRRRSFEVCVPKTPKT; UniProt P60514 1-40, looked up)”, the “pain responses in injected paws” value (mice) is listed as “this effect is not seen”.
